Reference: the NIST ThermoML archive (doi:10.1016/j.jct.2016.09.010)
Numbers after ± are expanded uncertainties.

How the values were obtained:
[1] = xn = mol fraction of the nth substance listed; settings: 100 kPa, Liquid; for speed of sound: Frequency=2 MHz, Linear variable-path acoustic interferometer; for mass density: Vibrating tube method
[2] = 100 kPa, Liquid; for speed of sound: Frequency=2 MHz, Linear variable-path acoustic interferometer; for mass density: Vibrating tube method

Q: Which speed of sound ([1]; 303.15 K, x2 = 0) does the source give for `Nc1ccccc1` [aniline] + CCOC(=O)C(C)O here?
A: 1614 ± 1.7 m/s

Q: And the mass density ([1]; 303.15 K, x2 = 0)?
A: 1012.81 ± 2 kg/m3

Q: What about the speed of sound ([1]; 308.15 K, x2 = 0) of the same compound?
A: 1595 ± 1.7 m/s

Q: And the mass density ([1]; 308.15 K, x2 = 0)?
A: 1008.91 ± 2 kg/m3

Q: What about the speed of sound ([1]; 313.15 K, x2 = 0) of the same compound?
A: 1574.4 ± 1.7 m/s

Q: And the mass density ([1]; 313.15 K, x2 = 0)?
A: 1004.59 ± 2 kg/m3

Q: What about the speed of sound ([1]; 318.15 K, x2 = 0) of the same compound?
A: 1554.9 ± 1.7 m/s

Q: What about the mass density ([1]; 318.15 K, x2 = 0) of the same compound?
A: 1000.21 ± 2 kg/m3

Q: What does the source list for `CCOC(=O)C(C)O` (stereo not drawn) [DL-ethyl lactate] + CCNc1ccccc1?
A: speed of sound ([1]; 303.15 K, x1 = 1): 1261.1 ± 2.5 m/s; mass density ([1]; 303.15 K, x1 = 1): 1022.88 ± 2.2 kg/m3; speed of sound ([1]; 308.15 K, x1 = 1): 1243.8 ± 2.5 m/s; mass density ([1]; 308.15 K, x1 = 1): 1017.39 ± 2.1 kg/m3; speed of sound ([1]; 313.15 K, x1 = 1): 1224.8 ± 2.5 m/s; mass density ([1]; 313.15 K, x1 = 1): 1011.83 ± 2.1 kg/m3; speed of sound ([1]; 318.15 K, x1 = 1): 1206.9 ± 2.5 m/s; mass density ([1]; 318.15 K, x1 = 1): 1006.31 ± 2.1 kg/m3

Q: Which results are given for `CCOC(=O)C(C)O` (stereo not drawn) [DL-ethyl lactate] + CNc1ccccc1?
A: speed of sound ([1]; 303.15 K, x1 = 1): 1261.1 ± 2.5 m/s; mass density ([1]; 303.15 K, x1 = 1): 1022.88 ± 2.2 kg/m3; speed of sound ([1]; 308.15 K, x1 = 1): 1243.8 ± 2.5 m/s; mass density ([1]; 308.15 K, x1 = 1): 1017.39 ± 2.1 kg/m3; speed of sound ([1]; 313.15 K, x1 = 1): 1224.8 ± 2.5 m/s; mass density ([1]; 313.15 K, x1 = 1): 1011.83 ± 2.1 kg/m3; speed of sound ([1]; 318.15 K, x1 = 1): 1206.9 ± 2.5 m/s; mass density ([1]; 318.15 K, x1 = 1): 1006.31 ± 2.1 kg/m3

Q: Which results are given for `Nc1ccccc1` [aniline]?
A: speed of sound ([2]; 303.15 K): 1614 ± 1.7 m/s; mass density ([2]; 303.15 K): 1012.81 ± 2 kg/m3; speed of sound ([2]; 308.15 K): 1595 ± 1.7 m/s; mass density ([2]; 308.15 K): 1008.91 ± 2 kg/m3; speed of sound ([2]; 313.15 K): 1574.4 ± 1.7 m/s; mass density ([2]; 313.15 K): 1004.59 ± 2 kg/m3; speed of sound ([2]; 318.15 K): 1554.9 ± 1.7 m/s; mass density ([2]; 318.15 K): 1000.21 ± 2 kg/m3

Q: Which speed of sound ([2]; 303.15 K) does the source give for `CCNc1ccccc1` [N-ethylaminobenzene] here?
A: 1497 ± 1.7 m/s

Q: What about the mass density ([2]; 303.15 K) of the same compound?
A: 952.41 ± 2 kg/m3

Q: And the speed of sound ([2]; 308.15 K)?
A: 1481 ± 1.7 m/s

Q: What about the mass density ([2]; 308.15 K) of the same compound?
A: 947.69 ± 2 kg/m3

Q: And the speed of sound ([2]; 313.15 K)?
A: 1464 ± 1.7 m/s

Q: What about the mass density ([2]; 313.15 K) of the same compound?
A: 942.95 ± 2 kg/m3

Q: And the speed of sound ([2]; 318.15 K)?
A: 1448 ± 1.6 m/s

Q: And the mass density ([2]; 318.15 K)?
A: 938.23 ± 2 kg/m3

Q: Which results are given for `CNc1ccccc1` [N-methylaniline]?
A: speed of sound ([2]; 303.15 K): 1547 ± 1.7 m/s; mass density ([2]; 303.15 K): 978.2 ± 2 kg/m3; speed of sound ([2]; 308.15 K): 1526.9 ± 1.7 m/s; mass density ([2]; 308.15 K): 973.53 ± 2 kg/m3; speed of sound ([2]; 313.15 K): 1511 ± 1.7 m/s; mass density ([2]; 313.15 K): 969.92 ± 2 kg/m3; speed of sound ([2]; 318.15 K): 1491.4 ± 1.7 m/s; mass density ([2]; 318.15 K): 964.9 ± 2 kg/m3
